Data taken from ChEMBL document CHEMBL2401610, “N-Benzyloxycarbonyl-S-(2,4-dinitrophenyl)glutathione dibutyl diester is inhibitory to melarsoprol resistant cell lines overexpressing the T. bruceiMRPA transporter” (Bioorg Med Chem Lett, 2013).

How the values were obtained:
[1] = tested on: Trypanosoma brucei brucei; test: Resistant factor, ratio of IC50 for bloodstream form of Trypanosoma brucei brucei expressing TbMRPA protein to IC50 for bloodstream form of wild type Trypanosoma brucei 247; format: functional
[2] = tested on: Trypanosoma brucei brucei; test: Antitrypanosomal activity against bloodstream form of Trypanosoma brucei brucei expressing TbMRPA protein after 3 days by microplate assay; format: functional, organism-based; details: 72 h
[3] = tested on: Trypanosoma brucei brucei; test: Antitrypanosomal activity against bloodstream form of wild type Trypanosoma brucei brucei 247 after 3 days by microplate assay; format: functional, organism-based; details: Trypanosoma brucei, 247, 72 h

Nc1nc(N)nc(Nc2ccc([As]3SCC(CO)S3)cc2)n1 (stereo not drawn) [MELARSOPROL]
Ratio IC50 [1]: 10

CCCCOC(=O)CNC(=O)[C@H](CSc1ccc([N+](=O)[O-])cc1[N+](=O)[O-])NC(=O)CC[C@H](NC(=O)OCc1ccccc1)C(=O)OCCCC
Ratio IC50 [1]: 1.4 | IC50 [2]: 6.5 µM | IC50 [3]: 4.5 µM

N[C@@H](CCC(=O)N[C@@H](CSC(=O)c1ccc(Br)cc1)C(=O)NCC(=O)O)C(=O)O
Ratio IC50 [1]: 1.8 | IC50 [2]: 163 µM | IC50 [3]: 87.5 µM

O=C(O)CNC(=O)[C@H](CSC(=O)c1ccc(Br)cc1)NC(=O)CC[C@H](NC(=O)OCc1ccccc1)C(=O)O
Ratio IC50 [1]: 182 | IC50 [2]: 785 µM | IC50 [3]: 4.3 µM

COC(=O)CNC(=O)[C@H](CSC(=O)c1ccc(Br)cc1)NC(=O)CC[C@H](NC(=O)OCc1ccccc1)C(=O)OC
Ratio IC50 [1]: 16.6 | IC50 [2]: 58 µM | IC50 [3]: 3.5 µM
